Test system: essential tremor
Assay: Clinical study in essential tremor (TETRAS, accelerometer)
Type: in vivo, human
Conditions: essential tremor patient, emerging data
Protocol: A clinical study was conducted to investigate the efficacy, safety, and tolerability of the compound of formula (I) in essential tremor. A patient who has been diagnosed with essential tremor completed 3 study periods: Screening, Treatment period (14 days), and Safety follow-up. The patient received a stable dose of 1 tremor medication throughout the clinical trial. The patient received 20 mg of the compound of formula (I) (one tablet of formulation 5) orally once a day for 7 days and 40 mg of the compound of formula (I) (two tablets of 20 mg formulation 5) orally once a day for 7 days (total of 14 days consecutively). Efficacy of the compound of formula (I) on upper limb tremor was assessed by The Essential Tremor Rating Assessment Scale (TETRAS) upper limb score at Baseline, on Day 7, and on Day 14. Efficacy of the compound of formula (I) on other measures of tremor severity was assessed by TETRAS performance subscale score, TETRAS performance individual items, and accelerometer at Baseline, on Day 7, and on Day 14.

`CC(C)(C)NC(=O)CN1CCC(CNC(=O)c2cc(F)cc(Cl)c2)CC1` [compound of formula (I)] was tested, and the tolerability was “well tolerated”.
